“And” between values parts separate entries of the source, which are not always exact repeats. Identical values can stand only once.
Assay: xn = mol fraction of the nth substance listed
Conditions: Gas, Buoyancy - hydrostatic balance with magnetic suspension - two sinkers

CC(C)C [2-methylpropane] + CCC
Conditions	mass density
303.15 K, 440.3 kPa, x2 = 0.503	9.824 kg/m3
303.15 K, 440.7 kPa, x2 = 0.503	9.834 kg/m3
303.15 K, 449.9 kPa, x2 = 0.503	10.061 kg/m3
303.15 K, 450 kPa, x2 = 0.503	10.069 kg/m3
303.15 K, 460 kPa, x2 = 0.503	10.317 kg/m3
303.15 K, 460.4 kPa, x2 = 0.503	10.325 kg/m3
303.15 K, 470.2 kPa, x2 = 0.503	10.57 kg/m3
303.15 K, 470.5 kPa, x2 = 0.503	10.581 kg/m3
303.15 K, 480 kPa, x2 = 0.503	10.823 kg/m3
303.15 K, 480.3 kPa, x2 = 0.503	10.83 kg/m3
303.15 K, 489.7 kPa, x2 = 0.503	11.072 kg/m3
303.15 K, 490.4 kPa, x2 = 0.503	11.087 kg/m3
303.15 K, 500.3 kPa, x2 = 0.503	11.344 kg/m3
303.15 K, 500.4 kPa, x2 = 0.503	11.344 kg/m3
303.15 K, 510.3 kPa, x2 = 0.503	11.608 kg/m3
303.15 K, 510.5 kPa, x2 = 0.503	11.6 kg/m3
303.15 K, 520.4 kPa, x2 = 0.503	11.861 kg/m3 and 11.864 kg/m3
303.15 K, 530.4 kPa, x2 = 0.503	12.121 kg/m3
303.15 K, 530.7 kPa, x2 = 0.503	12.129 kg/m3
303.15 K, 540.1 kPa, x2 = 0.503	12.37 kg/m3
303.15 K, 540.2 kPa, x2 = 0.503	12.378 kg/m3
303.15 K, 550.1 kPa, x2 = 0.503	12.642 kg/m3
303.15 K, 550.3 kPa, x2 = 0.503	12.642 kg/m3
303.15 K, 560.3 kPa, x2 = 0.503	12.914 kg/m3
303.15 K, 564.6 kPa, x2 = 0.503	13.019 kg/m3
303.15 K, 570.1 kPa, x2 = 0.503	13.17 kg/m3
303.15 K, 570.4 kPa, x2 = 0.503	13.178 kg/m3
303.15 K, 575.1 kPa, x2 = 0.503	13.306 kg/m3
303.15 K, 580.1 kPa, x2 = 0.503	13.434 kg/m3
303.15 K, 580.7 kPa, x2 = 0.503	13.453 kg/m3
303.15 K, 584.3 kPa, x2 = 0.503	13.548 kg/m3
303.15 K, 599.9 kPa, x2 = 0.799	12.55 kg/m3
303.15 K, 600.1 kPa, x2 = 0.799	12.557 kg/m3
303.15 K, 609.7 kPa, x2 = 0.799	12.784 kg/m3
303.15 K, 610.2 kPa, x2 = 0.799	12.802 kg/m3
303.15 K, 620.2 kPa, x2 = 0.799	13.04 kg/m3
303.15 K, 630.2 kPa, x2 = 0.799	13.289 kg/m3
303.15 K, 639.7 kPa, x2 = 0.799	13.516 kg/m3
303.15 K, 649.7 kPa, x2 = 0.799	13.757 kg/m3
303.15 K, 659.8 kPa, x2 = 0.799	14.006 kg/m3
303.15 K, 680.1 kPa, x2 = 0.799	14.516 kg/m3
303.15 K, 700 kPa, x2 = 0.799	15.01 kg/m3
303.15 K, 720 kPa, x2 = 0.799	15.515 kg/m3
303.15 K, 739.9 kPa, x2 = 0.799	16.028 kg/m3
303.15 K, 760.5 kPa, x2 = 0.799	16.557 kg/m3
303.15 K, 770.4 kPa, x2 = 0.799	16.821 kg/m3
303.15 K, 779.5 kPa, x2 = 0.799	17.055 kg/m3
303.15 K, 780.1 kPa, x2 = 0.799	17.073 kg/m3
303.15 K, 789.8 kPa, x2 = 0.799	17.319 kg/m3
303.15 K, 790.1 kPa, x2 = 0.799	17.342 kg/m3
303.15 K, 799.6 kPa, x2 = 0.799	17.59 kg/m3
323.15 K, 590.1 kPa, x2 = 0.244	13.582 kg/m3
323.15 K, 600.1 kPa, x2 = 0.244	13.847 kg/m3
323.15 K, 600.6 kPa, x2 = 0.249	13.833 kg/m3
323.15 K, 600.7 kPa, x2 = 0.249	13.848 kg/m3
323.15 K, 609.5 kPa, x2 = 0.244	14.1 kg/m3
323.15 K, 610.4 kPa, x2 = 0.249	14.09 kg/m3
323.15 K, 620.1 kPa, x2 = 0.249	14.354 kg/m3
323.15 K, 620.5 kPa, x2 = 0.244	14.391 kg/m3
323.15 K, 620.7 kPa, x2 = 0.249	14.369 kg/m3
323.15 K, 629.7 kPa, x2 = 0.244	14.643 kg/m3
323.15 K, 630.3 kPa, x2 = 0.249	14.633 kg/m3
323.15 K, 630.5 kPa, x2 = 0.244	14.658 kg/m3
323.15 K, 630.5 kPa, x2 = 0.249	14.64 kg/m3
323.15 K, 640.1 kPa, x2 = 0.249	14.889 kg/m3
323.15 K, 640.7 kPa, x2 = 0.244	14.937 kg/m3
323.15 K, 640.9 kPa, x2 = 0.249	14.923 kg/m3
323.15 K, 650.1 kPa, x2 = 0.249	15.168 kg/m3
323.15 K, 650.3 kPa, x2 = 0.244	15.201 kg/m3
323.15 K, 651.3 kPa, x2 = 0.244	15.223 kg/m3
323.15 K, 660 kPa, x2 = 0.249	15.436 kg/m3
323.15 K, 660.1 kPa, x2 = 0.249	15.447 kg/m3
323.15 K, 660.6 kPa, x2 = 0.244	15.487 kg/m3
323.15 K, 670 kPa, x2 = 0.244	15.744 kg/m3
323.15 K, 670 kPa, x2 = 0.249	15.714 kg/m3
323.15 K, 670.1 kPa, x2 = 0.249	15.719 kg/m3
323.15 K, 679.7 kPa, x2 = 0.244	16.015 kg/m3
323.15 K, 680.3 kPa, x2 = 0.249	15.998 kg/m3
323.15 K, 680.4 kPa, x2 = 0.249	16.006 kg/m3
323.15 K, 690.2 kPa, x2 = 0.244	16.31 kg/m3
323.15 K, 690.2 kPa, x2 = 0.249	16.277 kg/m3 and 16.285 kg/m3
323.15 K, 691.1 kPa, x2 = 0.244	16.328 kg/m3
323.15 K, 700.1 kPa, x2 = 0.244	16.592 kg/m3
323.15 K, 700.3 kPa, x2 = 0.249	16.571 kg/m3
323.15 K, 700.4 kPa, x2 = 0.249	16.571 kg/m3
323.15 K, 709.8 kPa, x2 = 0.244	16.868 kg/m3
323.15 K, 710 kPa, x2 = 0.249	16.835 kg/m3
323.15 K, 710.1 kPa, x2 = 0.249	16.843 kg/m3
323.15 K, 710.3 kPa, x2 = 0.244	16.875 kg/m3
323.15 K, 720.3 kPa, x2 = 0.249	17.129 kg/m3
323.15 K, 720.4 kPa, x2 = 0.249	17.137 kg/m3
323.15 K, 720.6 kPa, x2 = 0.244	17.177 kg/m3
323.15 K, 730 kPa, x2 = 0.249	17.416 kg/m3
323.15 K, 730.3 kPa, x2 = 0.249	17.408 kg/m3
323.15 K, 730.4 kPa, x2 = 0.244	17.456 kg/m3
323.15 K, 730.5 kPa, x2 = 0.244	17.456 kg/m3
323.15 K, 739.8 kPa, x2 = 0.249	17.687 kg/m3
323.15 K, 740 kPa, x2 = 0.249	17.697 kg/m3
323.15 K, 740.4 kPa, x2 = 0.244	17.75 kg/m3
323.15 K, 749.8 kPa, x2 = 0.244	18.022 kg/m3
323.15 K, 750 kPa, x2 = 0.249	17.989 kg/m3 and 17.996 kg/m3
323.15 K, 750.2 kPa, x2 = 0.244	18.029 kg/m3
323.15 K, 759.7 kPa, x2 = 0.249	18.276 kg/m3
323.15 K, 759.9 kPa, x2 = 0.249	18.276 kg/m3
323.15 K, 761.2 kPa, x2 = 0.244	18.357 kg/m3
323.15 K, 769.7 kPa, x2 = 0.244	18.602 kg/m3
323.15 K, 769.9 kPa, x2 = 0.249	18.577 kg/m3
323.15 K, 770 kPa, x2 = 0.249	18.577 kg/m3
323.15 K, 770.4 kPa, x2 = 0.499	16.983 kg/m3
323.15 K, 770.7 kPa, x2 = 0.499	16.982 kg/m3
323.15 K, 780 kPa, x2 = 0.249	18.871 kg/m3
323.15 K, 780.2 kPa, x2 = 0.499	17.239 kg/m3
323.15 K, 780.3 kPa, x2 = 0.499	17.244 kg/m3
323.15 K, 780.5 kPa, x2 = 0.249	18.894 kg/m3
323.15 K, 790.6 kPa, x2 = 0.244	19.228 kg/m3
323.15 K, 790.6 kPa, x2 = 0.499	17.513 kg/m3
323.15 K, 799.9 kPa, x2 = 0.249	19.467 kg/m3
323.15 K, 800.2 kPa, x2 = 0.499	17.765 kg/m3 and 17.769 kg/m3
323.15 K, 810.5 kPa, x2 = 0.499	18.042 kg/m3
323.15 K, 820.2 kPa, x2 = 0.499	18.299 kg/m3
323.15 K, 820.4 kPa, x2 = 0.499	18.307 kg/m3
323.15 K, 830.3 kPa, x2 = 0.499	18.572 kg/m3
323.15 K, 840.3 kPa, x2 = 0.499	18.844 kg/m3
323.15 K, 840.4 kPa, x2 = 0.499	18.848 kg/m3
323.15 K, 850.3 kPa, x2 = 0.499	19.121 kg/m3
323.15 K, 860.2 kPa, x2 = 0.499	19.387 kg/m3
323.15 K, 860.4 kPa, x2 = 0.499	19.398 kg/m3
323.15 K, 870.4 kPa, x2 = 0.499	19.669 kg/m3
323.15 K, 879.9 kPa, x2 = 0.499	19.938 kg/m3
323.15 K, 880.4 kPa, x2 = 0.499	19.948 kg/m3
323.15 K, 890.2 kPa, x2 = 0.499	20.228 kg/m3
323.15 K, 900.1 kPa, x2 = 0.499	20.506 kg/m3
323.15 K, 900.6 kPa, x2 = 0.499	20.517 kg/m3
323.15 K, 910.1 kPa, x2 = 0.499	20.784 kg/m3
323.15 K, 920.3 kPa, x2 = 0.499	21.078 kg/m3
323.15 K, 920.6 kPa, x2 = 0.499	21.087 kg/m3
323.15 K, 930.3 kPa, x2 = 0.499	21.359 kg/m3
323.15 K, 939.7 kPa, x2 = 0.499	21.637 kg/m3
323.15 K, 939.8 kPa, x2 = 0.499	21.635 kg/m3
323.15 K, 950.6 kPa, x2 = 0.499	21.949 kg/m3
323.15 K, 960.2 kPa, x2 = 0.499	22.222 kg/m3
323.15 K, 960.3 kPa, x2 = 0.499	22.242 kg/m3
323.15 K, 970.3 kPa, x2 = 0.499	22.521 kg/m3
323.15 K, 978.9 kPa, x2 = 0.499	22.767 kg/m3
323.15 K, 979.6 kPa, x2 = 0.499	22.791 kg/m3

From the NIST ThermoML archive (doi:10.1021/je900244c)
